# Source: ChEMBL document CHEMBL1158085, “Chrysosporide, a cyclic pentapeptide from a New Zealand sample of the fungus Sepedonium chrysospermum” (J Nat Prod, 2006)
# System: P388
# Assay: Cytotoxicity against mouse P388 cells
# Type: functional, cell-based
row,Compound,IC50 [µM]
1,CC(C)C[C@@H]1NC(=O)[C@H](CC(C)C)NC(=O)[C@@H](C)NC(=O)[C@H](C(C)C)NC(=O)[C@@H](CC(C)C)NC1=O [CHRYSOSPORIDE],33.4
2,CC(=O)Cc1cc(O)c(C)c(O)c1C=O,19.7
3,C/C=C/[C@@H]1OC(=O)C=C[C@@H]1O [PHOMALACTONE],40.9
4,Cc1cc(O)c(C)c(O)c1C=O,126
